Earlier results as cited in article PMC5488394, “30 YEARS OF THE MINERALOCORTICOID RECEPTOR: Mineralocorticoid receptor antagonists: 60 years of research and development” (The Journal of Endocrinology, 2017).
Read-outs that look alike come from different tables or passages of the source.

Columns and labels:
[1] = cited from earlier work; for mean half-life of spironolactone metabolite: healthy volunteers; for peak absolute plasma concentration / peak relative plasma concentration: steady state after oral 100 mg spironolactone per day
S810L MR mutant = tested on: S810L MR mutant; design: method as in Geller et al. 2000, Amazit et al. 2015; settings: ref Geller et al. 2000, Amazit et al. 2015; cited from earlier work
[2] = tested on: mineralocorticoid-dependent sodium retention; settings: cited from earlier work
[3] = design: method as in Liddle 1957; settings: patient with congestive heart failure and patient with Addison's disease; ref Liddle 1957; cited from earlier work
[4] = tested on: estrogen-primed immature rabbits; design: method as in Hertz & Tullner 1958; settings: Clauberg assay; ref Hertz & Tullner 1958; cited from earlier work
MR = tested on: MR; design: method as in Losert et al. 1985; settings: ref Losert et al. 1985; cited from earlier work
human MR = tested on: human MR; design: method as in Arai et al. 2015a; settings: ref Arai et al. 2015a; read-out: IC50, block of aldosterone-induced transcriptional activation of human MR; cited from earlier work
human plasma proteins = settings: cited from earlier work
[5] = design: method as in de Gasparo et al. 1989; settings: fludrocortisone challenge, healthy volunteers; 50 mg vs 25 mg spironolactone; ref de Gasparo et al. 1989; cited from earlier work
[6] = design: method as in Weinberger et al. 2002; settings: 100 mg OD or 50 mg BID, hypertensive patients; ref Weinberger et al. 2002; cited from earlier work
[7] = cited from earlier work
[8] = tested on: Dahl salt-sensitive hypertensive rats; design: method as in Arai et al. 2015b; settings: ref Arai et al. 2015b, cited from earlier work; for cardiorenal protection: 100 mg/kg
[9] = radioactively labeled, rats; ref Kolkhof & Borden 2012; cited from earlier work
[10] = ref Pitt et al. 2003, cited from earlier work
[11] = tested on: MR over other steroid hormone receptors; design: method as in Arai et al. 2015a; settings: in vitro; ref Arai et al. 2015a; cited from earlier work
DOCA/salt-loading rats = settings: cited from earlier work
[12] = cited from earlier work; remark: listed apart in the source
aldosterone receptor = tested on: aldosterone receptor; design: method as in Claire et al. 1979; settings: ref Claire et al. 1979; cited from earlier work
dogs and monkeys = settings: ref Lumb et al. 1978; cited from earlier work
[13] = design: method as in Kolkhof & Borden 2012; settings: mice; ref Kolkhof & Borden 2012; cited from earlier work
[14] = tested on: aldosterone-induced cardiac necrosis; design: method as in Selye 1960; settings: rats; ref Selye 1960; cited from earlier work
[15] = design: method as in Pitt et al. 1999; settings: low dose on top of standard of care; ref Pitt et al. 1999; cited from earlier work
rats = settings: cited from earlier work
urinary Na+/K+ ratio = tested on: urinary Na+/K+ ratio; design: method as in Casals-Stenzel et al. 1984; settings: rats, on average; ref Casals-Stenzel et al. 1984; cited from earlier work
[16] = tested on: rat renal cytoplasmatic MR; design: method as in Casals-Stenzel et al. 1984; settings: ref Casals-Stenzel et al. 1984; cited from earlier work
rat androgen receptor = tested on: rat androgen receptor; design: method as in Laurent et al. 1983; settings: ref Laurent et al. 1983; cited from earlier work
progesterone receptor = tested on: progesterone receptor; design: method as in Laurent et al. 1983; settings: estrogen-primed rabbit uterus; ref Laurent et al. 1983; cited from earlier work
[17] = ref Karim 1978, Garthwaite & McMahon 2004
[18] = single oral dose 50 mg, healthy subjects, ref Thosar et al. 2003

## CS[C@H]1[C@@H]2[C@H](CC[C@@]3(C)[C@H]2CC[C@@]32CCC(=O)O2)[C@@]2(C)CCC(=O)C=C2[C@@H]1O [HTMS, 6β-hydroxy-7α-thiomethyl-spironolactone]
[1]; [17]
  mean half-life of spironolactone metabolite: 15.0 h
[1]; ref Gardiner et al. 1989
  peak absolute plasma concentration: 125 ng/mL
  peak relative plasma concentration: 16.1%

## CC(=O)[C@H]1CC[C@H]2[C@@H]3CCC4=CC(=O)CC[C@]4(C)[C@H]3CC[C@]12C [Progesterone]
S810L MR mutant
  effect on S810L MR mutant: paradoxically activate

## C[C@]12CCC(=O)C=C1CC[C@@H]1[C@@H]2CC[C@@]2(C)[C@H]1CC[C@@]21CCC(=O)O1 [SC-5233, 3-(3-oxo-17β-hydroxy-4-androsten-17α-yl)propionic acid γ-lactone]
[2]; strictly dependent on presence of a mineralocorticoid, ref Kagawa et al. 1959
  antagonistic efficacy in mineralocorticoid-dependent models: convincing antagonistic efficacy
[3]
  natriuretic activity in patients: natriuretic activity
[4]
  in vivo progestational activity: substantial in vivo progestational activity

## C[C@]12CC[C@H]3[C@@H](CCC4=CC(=O)CC[C@@H]43)[C@@H]1CC[C@@]21CCC(=O)O1 [SC-8109]
[2]; adrenalectomized rats, ref Kagawa et al. 1957
  potency on mineralocorticoid-dependent sodium retention relative to SC-5233: more potent than SC-5233
[4]
  in vivo progestational activity: substantial in vivo progestational activity

## CS[C@@H]1CC2=CC(=O)CC[C@]2(C)[C@H]2CC[C@@]3(C)[C@@H](CC[C@@]34CCC(=O)O4)[C@H]12 [TMS, 7α-thiomethyl-spironolactone]
[1]; [17]
  mean half-life of spironolactone metabolite: 13.8 h
[1]; ref Gardiner et al. 1989
  peak absolute plasma concentration: 391 ng/mL
  peak relative plasma concentration: 50.3%

## C[C@]12CCC(=O)C=C1C=C[C@@H]1[C@@H]2CC[C@@]2(C)[C@H]1CC[C@@]21CCC(=O)O1 [canrenone]
[1]; [17]
  mean half-life of spironolactone metabolite: 16.5 h
[1]; multiple doses, ref Gardiner et al. 1989
  canrenone proportion of metabolites after spironolactone: about 23%
[1]; single dose, ref Merkus et al. 1983
  canrenone proportion of metabolites after spironolactone: about 15%
[1]; ref Gardiner et al. 1989
  peak absolute plasma concentration: 181 ng/mL
  peak relative plasma concentration: 23.3%

## C[C@]12CCC(=O)C=C1[C@@H]1C[C@@H]1[C@H]1[C@@H]3[C@@H]4C[C@@H]4[C@@]4(CCC(=O)O4)[C@@]3(C)CC[C@@H]12 [drospirenone, 1,2-dihydro-spirorenone]
MR
  potency relative to spironolactone on the MR in rats: eight times more potent

## COC(=O)[C@@H]1CC2=CC(=O)CC[C@]2(C)[C@@]23O[C@@H]2C[C@@]2(C)[C@@H](CC[C@@]24CCC(=O)O4)[C@H]13 [eplerenone, 9-11α-epoxymexrenone]
Human MR
  IC50: 970 nM
Human plasma proteins; ref Inspra Prescribing Information 2002
  bound fraction (plasma proteins): about 50%
[5]
  natriuretic activity vs spironolactone: rough equi-efficacy
[6]
  efficacy compared to 50 mg spironolactone twice daily: 50–75%
[7]; ref Kolkhof & Borden 2012
  active metabolites: no active metabolites
[7]; [18]
  duration of natriuretic effect: ~ 10 h
  half-life: 2.9 h
[7]; steady state after multiple doses of 100 mg, ref Cook et al. 2003
  half-life: 4 h
[8]
  cardiorenal protection: only partial cardiorenal protection
S810L MR mutant
  effect on S810L MR mutant: paradoxically activate
[9]
  accumulation of drug equivalent concentration in kidneys compared with heart tissue: ≥ 3 fold
[10]; P = 0.002
  incidence of serious hyperkalemia (≥6 mmol/L) vs placebo: significantly higher
[10]; vs placebo, mean follow-up 16 months
  primary endpoint, death from any cause or hospitalization for CV events: significantly reduced

## Cc1c(C(=O)Nc2ccc(S(C)(=O)=O)cc2)cn(CCO)c1-c1ccccc1C(F)(F)F [esaxerenone, (5S)-1-(2-hydroxyethyl)-4-methyl-N-[4-(methylsulfonyl)phenyl]-5-[2-(trifluoromethyl)phenyl]-1H-pyrrole-3-carboxamide]
Human MR
  IC50: 3.7 nM
[11]
  selectivity for MR over other steroid hormone receptors: ≥ 1000 fold
DOCA/salt-loading rats; DOCA/salt-loading rats, ref Arai et al. 2015a
  antihypertensive activity vs spironolactone or eplerenone: more pronounced antihypertensive activity
DOCA/salt-loading rats; ref Arai et al. 2016
  effect on hypertension and renal injury in DOCA rats: not only prevented but also ameliorated
[8]; chronic treatment, 0.5 mg/kg equivalent to spironolactone or eplerenone 100 mg/kg
  antihypertensive effect: dose-dependent antihypertensive effect
[8]
  reduction of proteinuria and renal hypertrophy, potency vs spironolactone and eplerenone: superior potency

## CC(=O)S[C@@H]1CC2=CC(=O)C=C[C@]2(C)[C@H]2CC[C@@]3(C)[C@@H]([C@@H]4C[C@@H]4[C@@]34CCC(=O)O4)[C@H]12 [mespirenone, 15β,16β-methylene-spironolactone]
[12]; healthy volunteers, ref Losert et al. 1986
  natriuretic potency relative to spironolactone: 6 fold

## C[C@]12CCC(=O)C=C1[C@@H]1C[C@@H]1[C@@H]1[C@@H]2CC[C@@]2(C)[C@H]1CC[C@@]21CCC(=O)O1 [prorenone]
Aldosterone receptor
  effect on nuclear translocation of the aldosterone receptor: blocks nuclear translocation

## CC(=O)S[C@@H]1CC2=CC(=O)CC[C@]2(C)[C@H]2CC[C@@]3(C)[C@@H](CC[C@@]34CCC(=O)O4)[C@H]12 [spironolactone, 7α-acetylthio-17α-hydroxy-3-oxopregn-4-ene-21-carboxylic acid γ-lactone]
Human MR
  IC50: […]
[1]; [17]
  plasma half-life: less than 2 h
[1]; ref Gardiner et al. 1989
  peak absolute plasma concentration: […]
Dogs and monkeys
  tumorigenic or carcinogenic potential in chronic dog and monkey studies: no tumorigenic or carcinogenic potential
Human plasma proteins; ref Chien et al. 1976
  bound to human plasma proteins: 94%
[8]
  cardiorenal protection: only partial cardiorenal protection
S810L MR mutant
  effect on S810L MR mutant: paradoxically activate
[13]
  whole radioactivity in cardiac tissue: below the detection limit
[14]
  protection from aldosterone-induced cardiac necrosis: protected
[15]
  mortality in severe heart failure: mortality reduction
rats; 10, 30 and 100 mg/kg/day, ref Aldactone NDA 2008
  tumor finding, 104-week rat study: significant increases in hepatocellular adenomas and benign testicular and thyroid adenomas
rats; male rats, 500 mg/kg, 78 weeks, ref Mayer et al. 1988
  tumor finding, 78-week rat study: increased numbers of benign testicular adenomas
rats; rat, in vivo
  finding in chronic toxicity studies in rats: tumorigenic

## C[C@]12C=CC(=O)C=C1[C@@H]1C[C@@H]1[C@H]1[C@@H]3[C@@H]4C[C@@H]4[C@@]4(CCC(=O)O4)[C@@]3(C)CC[C@@H]12 [spirorenone]
Urinary Na+/K+ ratio
  in vivo activity on urinary Na+/K+ ratio relative to spironolactone: 8.6 times
[16]
  affinity for rat renal cytoplasmatic MR relative to spironolactone: 0.73 times
Rat androgen receptor
  affinity for the rat androgen receptor: practically no affinity
Progesterone receptor
  affinity for the progesterone receptor vs spironolactone: higher affinity
[12]; single dose, healthy individuals, ref Seifert et al. 1982
  potency relative to spironolactone, urinary sodium excretion: at least 4 times
